Eleven compounds from ChEMBL document CHEMBL5465560, “Selectivity Literature for EUbOPEN Chemogenomic Library” (2024) can be followed below.

In assay [1] the target is Serine/threonine-protein kinase PAK 6 (Homo sapiens) (UniProt Q9NQU5). The assay can be described thus: Selectivity interaction (Ambit KINOMEscan and KiNATiv profiling in Jurkat cells) EUB0000090b PAK6. As to conditions: at 1 µM. It is filed as cell-based.
Assay [2] concerns the target RAC-gamma serine/threonine-protein kinase (Homo sapiens, UniProt Q9Y243). The assay can be described thus: Selectivity interaction (KinomeScan (DiscoverX)) EUB0000092b AKT3. As to conditions: at 10 µM.
The target in assay [3] is T1, Hormonally up-regulated neu tumor-associated kinase (Homo sapiens) (UniProt P57058).
T1 sequence (whole entry): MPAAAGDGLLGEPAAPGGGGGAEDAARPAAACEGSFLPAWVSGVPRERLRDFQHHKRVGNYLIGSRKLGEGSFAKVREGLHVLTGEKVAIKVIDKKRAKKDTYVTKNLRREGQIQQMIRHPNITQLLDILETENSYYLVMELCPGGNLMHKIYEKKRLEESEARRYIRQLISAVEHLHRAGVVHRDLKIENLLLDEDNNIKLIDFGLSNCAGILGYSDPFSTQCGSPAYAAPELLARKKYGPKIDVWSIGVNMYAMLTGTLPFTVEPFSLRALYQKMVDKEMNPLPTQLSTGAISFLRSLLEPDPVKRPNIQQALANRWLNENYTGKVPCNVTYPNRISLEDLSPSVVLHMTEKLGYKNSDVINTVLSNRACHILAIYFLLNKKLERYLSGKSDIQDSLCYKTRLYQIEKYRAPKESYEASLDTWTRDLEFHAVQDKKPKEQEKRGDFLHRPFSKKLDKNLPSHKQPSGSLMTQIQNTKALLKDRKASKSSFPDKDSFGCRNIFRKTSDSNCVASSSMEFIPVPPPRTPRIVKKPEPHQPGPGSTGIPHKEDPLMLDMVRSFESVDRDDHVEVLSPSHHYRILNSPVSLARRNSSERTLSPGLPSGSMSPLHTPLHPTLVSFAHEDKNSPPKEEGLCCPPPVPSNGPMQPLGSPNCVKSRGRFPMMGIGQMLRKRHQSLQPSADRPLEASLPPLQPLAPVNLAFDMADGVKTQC
Put plainly: Selectivity interaction (KinomeScan (DiscoverX)) EUB0000655a HUNK. As to conditions: at 10 µM.

Assay [4] addresses SRSF protein kinase 1 (Homo sapiens, UniProt Q96SB4). Put plainly: Selectivity interaction (KinomeScan (DiscoverX)) EUB0000695a SRPK1. As to conditions: at 100 nM.
The target in assay [5] is T2, Activin receptor type-1B (Homo sapiens) (UniProt P36896).
T2 sequence (whole entry): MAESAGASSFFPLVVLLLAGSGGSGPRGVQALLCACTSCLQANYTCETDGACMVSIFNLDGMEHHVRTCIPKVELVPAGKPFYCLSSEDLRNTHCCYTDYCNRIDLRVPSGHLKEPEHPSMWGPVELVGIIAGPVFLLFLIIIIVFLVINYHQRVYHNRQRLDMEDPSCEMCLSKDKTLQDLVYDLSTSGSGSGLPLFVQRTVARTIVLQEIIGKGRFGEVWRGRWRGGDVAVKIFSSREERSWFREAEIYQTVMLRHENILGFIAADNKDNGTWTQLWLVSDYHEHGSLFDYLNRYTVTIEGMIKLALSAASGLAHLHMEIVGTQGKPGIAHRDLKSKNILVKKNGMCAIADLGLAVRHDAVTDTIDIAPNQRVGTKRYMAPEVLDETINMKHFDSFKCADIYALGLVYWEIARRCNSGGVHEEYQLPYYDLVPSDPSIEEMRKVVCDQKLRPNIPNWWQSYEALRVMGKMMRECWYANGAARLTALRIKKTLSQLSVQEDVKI
The assay can be described thus: Selectivity interaction (SelectScreen profiling (Invitrogen)) EUB0000607a ACVR1B. As to conditions: at 2 µM.

Assay [6] addresses T3, Serine/threonine-protein kinase greatwall (Homo sapiens) (UniProt Q96GX5).
T3 sequence (whole entry): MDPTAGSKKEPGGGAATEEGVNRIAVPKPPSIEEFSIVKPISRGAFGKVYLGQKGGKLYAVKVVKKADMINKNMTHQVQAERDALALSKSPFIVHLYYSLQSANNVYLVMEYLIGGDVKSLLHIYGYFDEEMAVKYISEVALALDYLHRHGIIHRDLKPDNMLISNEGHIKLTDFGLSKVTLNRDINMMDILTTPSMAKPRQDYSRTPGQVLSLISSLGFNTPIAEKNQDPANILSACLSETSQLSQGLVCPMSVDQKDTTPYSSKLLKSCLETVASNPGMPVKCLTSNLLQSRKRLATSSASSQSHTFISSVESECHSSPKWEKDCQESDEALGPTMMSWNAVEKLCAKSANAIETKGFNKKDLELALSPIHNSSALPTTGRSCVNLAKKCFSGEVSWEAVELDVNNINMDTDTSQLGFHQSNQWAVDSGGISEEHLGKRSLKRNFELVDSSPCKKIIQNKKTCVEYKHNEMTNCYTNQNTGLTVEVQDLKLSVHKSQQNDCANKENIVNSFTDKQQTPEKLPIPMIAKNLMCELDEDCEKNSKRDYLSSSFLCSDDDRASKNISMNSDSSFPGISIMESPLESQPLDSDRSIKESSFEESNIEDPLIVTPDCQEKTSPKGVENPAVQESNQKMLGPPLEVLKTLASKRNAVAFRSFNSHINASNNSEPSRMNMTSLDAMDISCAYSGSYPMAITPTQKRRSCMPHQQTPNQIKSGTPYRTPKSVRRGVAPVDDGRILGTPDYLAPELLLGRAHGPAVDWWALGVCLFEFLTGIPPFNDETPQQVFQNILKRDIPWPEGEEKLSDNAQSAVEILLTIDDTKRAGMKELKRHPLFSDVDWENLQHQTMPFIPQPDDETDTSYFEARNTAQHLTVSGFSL
The assay can be described thus: Selectivity interaction (ActivX KiNativ screen (kinase selectivity in THP-1 cell lysates)) EUB0000639a MASTL. It is filed as subcellular. As to conditions: lysate, at 1 µM.

The target in assay [7] is Casein kinase II subunit alpha (Homo sapiens, UniProt P68400). Put plainly: Selectivity interaction (Kinase panel (Enzyme activity assay)) EUB0000612a CSNK2A1.
The subject of assay [8] is Hepatocyte growth factor receptor (Homo sapiens), P08581 [M1250T]. The assay can be described thus: (§1) Selectivity interaction (KinomeScan (DiscoverX)) EUB0000229b MET. As to conditions: at 1 µM.
The test system of assay [9] is Hepatocyte growth factor receptor (Homo sapiens), P08581 [Y1235D]. The assay is described as §1. As to conditions: at 1 µM.
Sequence of Hepatocyte growth factor receptor (Homo sapiens), P08581 [Y1235D] (P08581 whole entry Y1235D): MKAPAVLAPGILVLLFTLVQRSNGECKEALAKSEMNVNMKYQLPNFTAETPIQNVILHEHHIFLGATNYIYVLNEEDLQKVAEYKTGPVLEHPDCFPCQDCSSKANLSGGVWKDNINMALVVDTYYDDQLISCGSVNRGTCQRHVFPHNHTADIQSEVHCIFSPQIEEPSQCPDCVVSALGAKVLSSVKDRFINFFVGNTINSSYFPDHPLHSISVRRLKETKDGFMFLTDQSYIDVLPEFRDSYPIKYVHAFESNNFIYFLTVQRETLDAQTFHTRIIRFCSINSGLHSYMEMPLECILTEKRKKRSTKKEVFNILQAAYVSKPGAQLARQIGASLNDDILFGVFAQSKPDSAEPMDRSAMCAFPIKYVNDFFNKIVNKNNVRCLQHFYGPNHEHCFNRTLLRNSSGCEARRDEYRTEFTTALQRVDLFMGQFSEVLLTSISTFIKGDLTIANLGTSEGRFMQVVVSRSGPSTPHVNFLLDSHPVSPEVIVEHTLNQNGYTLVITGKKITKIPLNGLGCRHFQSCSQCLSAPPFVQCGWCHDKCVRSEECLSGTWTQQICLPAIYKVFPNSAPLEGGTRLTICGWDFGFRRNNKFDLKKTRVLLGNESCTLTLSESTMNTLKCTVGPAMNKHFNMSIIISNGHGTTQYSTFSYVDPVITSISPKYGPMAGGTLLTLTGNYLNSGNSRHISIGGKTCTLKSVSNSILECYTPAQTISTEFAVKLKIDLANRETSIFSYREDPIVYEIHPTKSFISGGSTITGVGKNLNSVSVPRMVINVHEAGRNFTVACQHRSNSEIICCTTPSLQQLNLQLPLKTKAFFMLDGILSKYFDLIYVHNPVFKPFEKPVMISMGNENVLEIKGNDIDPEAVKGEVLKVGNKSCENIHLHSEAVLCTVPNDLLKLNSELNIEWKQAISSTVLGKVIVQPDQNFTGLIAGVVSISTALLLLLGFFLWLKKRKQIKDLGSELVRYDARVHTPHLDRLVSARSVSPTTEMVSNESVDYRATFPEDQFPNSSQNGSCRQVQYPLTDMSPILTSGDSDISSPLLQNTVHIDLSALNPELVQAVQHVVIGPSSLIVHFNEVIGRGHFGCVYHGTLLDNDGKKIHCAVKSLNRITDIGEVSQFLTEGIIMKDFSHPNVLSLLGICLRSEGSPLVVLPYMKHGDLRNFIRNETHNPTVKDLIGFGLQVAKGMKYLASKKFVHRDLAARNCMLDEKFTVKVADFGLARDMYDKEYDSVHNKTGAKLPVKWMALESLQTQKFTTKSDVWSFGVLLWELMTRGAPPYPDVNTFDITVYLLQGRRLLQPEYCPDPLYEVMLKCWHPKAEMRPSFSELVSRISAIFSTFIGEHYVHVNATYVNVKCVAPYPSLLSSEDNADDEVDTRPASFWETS
The target in assay [10] is Hepatocyte growth factor receptor (Homo sapiens, UniProt P08581). Described as §1. As to conditions: at 10 µM.
Assay [11] has as its target Cyclin-dependent kinase 17 (Homo sapiens) (UniProt Q00537). As to conditions: at 10 µM.
Assay [12] concerns the target Tyrosine-protein kinase Fer (Homo sapiens) (UniProt P16591). The assay can be described thus: Selectivity interaction (ActivX KiNativ screen (ex vivo kinase selectivity in human PBMCs)) EUB0001619a FER. As to conditions: PBMC, at 1 µM. It is filed as cell-based.
The target in assay [13] is Phosphatidylinositol 4-kinase beta (Homo sapiens, UniProt Q9UBF8). The assay can be described thus: Selectivity interaction (Kinase panel (KiNativ target engagement assay in Jurkat cells)) EUB0001635a PI4KB. The assay is classed as cell-based. As to conditions: Selectivity number of off-targets 0.0, Selectivity number of targets 233.0, Source Knowledge https://www.sciencedirect.com/science/article/pii/S2451945619300674?via%3Dihub, at 1 µM.
Sequence of Phosphatidylinositol 4-kinase beta (Q9UBF8 2-816 limits assumed): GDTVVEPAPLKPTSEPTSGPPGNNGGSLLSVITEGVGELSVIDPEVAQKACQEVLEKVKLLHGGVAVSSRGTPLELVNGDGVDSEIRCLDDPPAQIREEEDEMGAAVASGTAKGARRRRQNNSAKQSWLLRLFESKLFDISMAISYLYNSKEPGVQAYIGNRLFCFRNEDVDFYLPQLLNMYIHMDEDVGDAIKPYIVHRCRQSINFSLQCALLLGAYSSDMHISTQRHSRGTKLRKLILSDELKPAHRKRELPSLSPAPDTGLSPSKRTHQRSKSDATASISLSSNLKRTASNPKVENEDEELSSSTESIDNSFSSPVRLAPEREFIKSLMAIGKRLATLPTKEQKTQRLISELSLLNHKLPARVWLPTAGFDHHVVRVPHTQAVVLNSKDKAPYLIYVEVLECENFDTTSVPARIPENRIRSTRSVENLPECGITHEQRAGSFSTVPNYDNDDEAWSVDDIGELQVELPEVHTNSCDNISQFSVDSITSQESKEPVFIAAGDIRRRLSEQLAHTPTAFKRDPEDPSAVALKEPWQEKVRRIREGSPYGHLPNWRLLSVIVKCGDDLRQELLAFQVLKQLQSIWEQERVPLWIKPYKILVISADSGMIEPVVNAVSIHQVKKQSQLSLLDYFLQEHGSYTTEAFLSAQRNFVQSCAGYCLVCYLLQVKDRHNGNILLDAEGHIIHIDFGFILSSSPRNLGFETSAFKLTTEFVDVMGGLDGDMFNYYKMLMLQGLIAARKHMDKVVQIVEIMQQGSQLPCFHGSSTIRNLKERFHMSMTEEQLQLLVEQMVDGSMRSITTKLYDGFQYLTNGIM

Sequence of Cyclin-dependent kinase 17 (Homo sapiens) (Q00537 whole entry, looked up): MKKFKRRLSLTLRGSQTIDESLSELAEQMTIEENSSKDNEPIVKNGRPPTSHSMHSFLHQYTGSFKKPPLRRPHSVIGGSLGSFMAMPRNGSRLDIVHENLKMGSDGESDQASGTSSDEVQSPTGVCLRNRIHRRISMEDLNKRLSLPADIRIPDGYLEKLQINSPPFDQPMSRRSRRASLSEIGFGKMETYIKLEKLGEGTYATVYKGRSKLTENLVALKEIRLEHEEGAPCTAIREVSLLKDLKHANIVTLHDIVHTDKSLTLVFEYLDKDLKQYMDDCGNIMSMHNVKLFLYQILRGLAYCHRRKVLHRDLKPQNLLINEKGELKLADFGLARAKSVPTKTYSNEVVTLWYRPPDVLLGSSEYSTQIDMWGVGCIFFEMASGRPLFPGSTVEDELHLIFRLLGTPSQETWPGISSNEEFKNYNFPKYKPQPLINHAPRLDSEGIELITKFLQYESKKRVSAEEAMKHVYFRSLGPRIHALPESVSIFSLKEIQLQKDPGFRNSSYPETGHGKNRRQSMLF
Sequence of SRSF protein kinase 1 (Q96SB4 whole entry): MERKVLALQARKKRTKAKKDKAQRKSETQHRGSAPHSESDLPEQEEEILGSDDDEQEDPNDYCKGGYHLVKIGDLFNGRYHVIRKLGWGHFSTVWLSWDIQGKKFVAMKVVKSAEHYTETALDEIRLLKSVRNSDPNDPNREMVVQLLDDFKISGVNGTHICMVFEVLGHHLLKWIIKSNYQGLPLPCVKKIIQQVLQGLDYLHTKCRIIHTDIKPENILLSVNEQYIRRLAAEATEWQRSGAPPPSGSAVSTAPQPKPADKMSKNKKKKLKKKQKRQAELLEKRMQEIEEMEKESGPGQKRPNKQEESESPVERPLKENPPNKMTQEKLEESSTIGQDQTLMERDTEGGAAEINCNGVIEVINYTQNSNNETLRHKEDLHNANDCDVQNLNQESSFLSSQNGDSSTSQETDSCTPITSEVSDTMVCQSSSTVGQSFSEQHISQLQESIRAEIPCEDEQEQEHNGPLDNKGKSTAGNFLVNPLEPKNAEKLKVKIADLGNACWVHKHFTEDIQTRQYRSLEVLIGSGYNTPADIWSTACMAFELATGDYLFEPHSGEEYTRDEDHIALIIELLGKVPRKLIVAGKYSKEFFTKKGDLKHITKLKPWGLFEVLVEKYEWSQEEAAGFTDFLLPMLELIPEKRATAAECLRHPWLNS
Sequence of Hepatocyte growth factor receptor (Homo sapiens), P08581 [M1250T] (P08581 whole entry M1250T): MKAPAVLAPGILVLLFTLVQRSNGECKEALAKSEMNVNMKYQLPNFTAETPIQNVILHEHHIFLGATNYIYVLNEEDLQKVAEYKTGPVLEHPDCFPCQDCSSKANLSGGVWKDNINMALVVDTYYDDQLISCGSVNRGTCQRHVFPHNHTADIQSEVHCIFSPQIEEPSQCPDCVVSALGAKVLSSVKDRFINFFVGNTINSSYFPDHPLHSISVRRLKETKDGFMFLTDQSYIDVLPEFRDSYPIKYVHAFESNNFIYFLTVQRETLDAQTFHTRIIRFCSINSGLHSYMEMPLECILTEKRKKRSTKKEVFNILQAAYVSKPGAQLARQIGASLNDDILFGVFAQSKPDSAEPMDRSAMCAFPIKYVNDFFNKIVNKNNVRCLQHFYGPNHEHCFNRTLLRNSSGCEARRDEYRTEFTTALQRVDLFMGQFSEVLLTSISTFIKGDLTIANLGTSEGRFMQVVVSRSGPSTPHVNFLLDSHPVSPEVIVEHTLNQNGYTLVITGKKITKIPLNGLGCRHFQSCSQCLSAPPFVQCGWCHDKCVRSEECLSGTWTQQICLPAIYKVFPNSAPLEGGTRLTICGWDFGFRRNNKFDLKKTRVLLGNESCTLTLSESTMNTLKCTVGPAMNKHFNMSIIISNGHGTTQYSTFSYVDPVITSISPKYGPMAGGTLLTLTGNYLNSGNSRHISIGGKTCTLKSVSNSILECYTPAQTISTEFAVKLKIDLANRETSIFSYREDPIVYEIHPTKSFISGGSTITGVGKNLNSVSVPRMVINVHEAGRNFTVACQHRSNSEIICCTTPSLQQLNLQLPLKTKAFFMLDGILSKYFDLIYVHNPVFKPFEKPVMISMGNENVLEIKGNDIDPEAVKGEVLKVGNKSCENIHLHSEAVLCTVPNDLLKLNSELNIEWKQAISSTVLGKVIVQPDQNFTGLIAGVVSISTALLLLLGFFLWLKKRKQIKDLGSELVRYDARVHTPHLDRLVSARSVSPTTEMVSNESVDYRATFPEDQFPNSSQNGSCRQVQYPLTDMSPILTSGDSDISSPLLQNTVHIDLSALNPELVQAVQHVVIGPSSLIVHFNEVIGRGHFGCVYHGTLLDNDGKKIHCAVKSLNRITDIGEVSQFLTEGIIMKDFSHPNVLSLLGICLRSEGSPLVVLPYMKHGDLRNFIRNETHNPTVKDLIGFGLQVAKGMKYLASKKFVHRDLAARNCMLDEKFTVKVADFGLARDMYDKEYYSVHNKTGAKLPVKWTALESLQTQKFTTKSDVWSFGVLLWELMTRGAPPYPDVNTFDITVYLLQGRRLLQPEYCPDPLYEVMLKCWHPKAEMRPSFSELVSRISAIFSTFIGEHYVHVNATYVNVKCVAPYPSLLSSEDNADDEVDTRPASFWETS

Take `CN(C)C/C=C/C(=O)Nc1ccc(C(=O)N2CCCC(Nc3ncc(Cl)c(-c4c[nH]c5ccccc45)n3)C2)cc1` (stereo not drawn): the % of control in [1] is 87%.

As for `CCC(=O)N1CCN(c2ccc(-n3c(=O)ccc4cnc5ccc(-c6cnc7ccccc7c6)cc5c43)cc2C(F)(F)F)CC1`, the % of control in assay [2] is 77%.

`CN(C)CCOc1ccc(-c2nc(-c3ccncc3)c(-c3ccc4c(c3)CC/C4=N\O)[nH]2)cc1` yielded a % of control in assay [3] of 84%.

Take `Cc1cc(F)c(C(=O)Nc2cccc(-c3nncn3C(C)C)n2)cc1-n1cnc(C2CC2)c1`: the % of control in assay [4] turned out to be 91%.

In turn, `CNC(=O)Nc1ccc(-c2nc(N3CC4CCC(C3)O4)c3cnn(C4CCC5(CC4)OCCO5)c3n2)cc1` registered a % of inhibition in [5] of 3%.

In assay [6], `CC[C@@H]1[C@H](F)C(=O)N[C@@H]1COc1nccc2cc(C(N)=O)c(OC)cc12` [ZIMLOVISERTIB] showed a % of inhibition of 35.1%.

What is called IC50 is the concentration that gives 50% inhibition. The low end stands for higher potency, the high end for lower potency. For the compound `CCc1cccc(CC)c1NC(=O)c1nn(C)c2c1CCc1cnc(Nc3ccc(C(=O)NC4CCN(C)CC4)cc3OC(F)(F)F)nc1-2`, the IC50 in assay [7] was 5.7 µM.

In the case of `COc1cc(N(C)c2ccnc3ccc(C(F)(F)F)cc23)cc(OC)c1OC`, the % binding amounted to 96% in assay [8], 82% in assay [9] and 100% in assay [10].

For the compound `COCC(=O)NC/C=C/c1ccc2ncnc(Nc3ccc(Oc4ccc(C)nc4)c(C)c3)c2c1` [CP-724714], in assay [11], the % of control turned out to be 100%.

Consider `N#Cc1cccc(-c2c[nH]c3ncnc(N4CCOCC4)c23)c1`, for which the % of inhibition in assay [12] was 12%.

Regarding `C=CC(=O)Nc1ccc(C(=O)Nc2[nH]nc3c2CN(C(=O)N[C@H](CN(C)C)c2ccccc2)C3(C)C)cc1`, the % of engagement in assay [13] was -4.1%.
